Assay results taken from the supplement of paper PMC10307832.

The cell lines below were run with Cc1cc([C@@H](C)Nc2ccccc2C(=O)O)c2nc(N3CCOCC3)cc(=O)n2c1 [AZD6482] + C[C@@H](Oc1cc(-c2cnn(C3CCNCC3)c2)cnc1N)c1c(Cl)ccc(F)c1Cl [Crizotinib] (partner 1 µM) (assay: relative viability (nuclei count vs DMSO), 5 days (fraction); higher = more cells survive). Conditions: first compound 0.08 µM.
Outline: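 Lung cancer cell lines, seeded in 1536-well plates, were treated the following day by pin tool with a single drug or with five library-drug doses (not always all listed) in √10 steps on top of a fixed anchor-drug dose. Cells were fixed and nuclei stained in one step after 5 days, and nuclei were counted. Relative viability is the nuclei count for treated wells divided by that for vehicle wells, reported as medians of duplicate plates.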
CAL-12T showed a relative viability of 0.572.
NCI-H2228 gave a relative viability of 0.368.
NCI-H1563 was tested, and the relative viability was 0.783.
NCI-H1944 was tested, and the relative viability was 1.01.
ABC-1 showed a relative viability of 0.853.
NCI-H358 showed a relative viability of 0.514.

Same assay, conditions: first compound 0.253 µM
NCI-H727 was tested, and the relative viability was 0.971.
Work on EBC-1 yielded a relative viability of 0.154.
For NCI-H1703, the relative viability was 0.505.
For NCI-H1993, the relative viability was 0.74.
Work on SW 1573 yielded a relative viability of 0.696.
NCI-H838 gave a relative viability of 0.824.
Cell Line LCLC-103H has a relative viability of 0.994.
For NCI-H520, the relative viability was 0.615.
Work on NCI-H2126 yielded a relative viability of 0.987.
EMC-BAC-2 was tested, and the relative viability was 0.717.
NCI-H2085 was tested, and the relative viability was 0.537.
Calu-6 showed a relative viability of 0.741.
Work on HCC-366 yielded a relative viability of 0.447.
NCI-H1666 was tested, and the relative viability was 1.11.
Cell Line NCI-H596 has a relative viability of 0.824.
Cell Line NCI-H2087 has a relative viability of 0.93.
SK-MES-1 was tested, and the relative viability was 0.838.
H3255 gave a relative viability of 0.819.
COR-L23 was tested, and the relative viability was 0.733.
COR-L 105 showed a relative viability of 0.742.
With IA-LM the relative viability was 1.06.
For LOU-NH91, the relative viability was 0.725.
In the case of NCI-H2170, the relative viability is reported as 1.15.
NCI-H2405 was tested, and the relative viability was 0.772.
For HOP-62, the relative viability was 0.897.
HCC-44 was tested, and the relative viability was 0.884.
With A549 the relative viability was 0.722.
LU99A was tested, and the relative viability was 0.495.
BEN showed a relative viability of 0.769.
For HARA, the relative viability was 1.04.
For NCI-H1299, the relative viability was 0.946.
CAL-12T showed a relative viability of 0.662.
For NCI-H2228, the relative viability was 0.46.
NCI-H1563 gave a relative viability of 0.821.
Work on NCI-H1944 yielded a relative viability of 1.07.
ABC-1 gave a relative viability of 0.969.
NCI-H358 was tested, and the relative viability was 0.592.

Same assay, conditions: first compound 0.8 µM
NCI-H727 was tested, and the relative viability was 0.864.
With NCI-H1650 the relative viability was 0.958.
EBC-1 was tested, and the relative viability was 0.212.
NCI-H1703 showed a relative viability of 0.396.
Cell Line SW 1573 has a relative viability of 0.733.
In the case of NCI-H838, the relative viability is reported as 0.689.
For LCLC-103H, the relative viability was 0.911.
For NCI-H520, the relative viability was 0.523.
NCI-H2126 showed a relative viability of 1.01.
Work on EMC-BAC-2 yielded a relative viability of 0.858.
Cell Line NCI-H2085 has a relative viability of 0.519.
Calu-6 was tested, and the relative viability was 0.796.
HCC-366 showed a relative viability of 0.395.
In the case of NCI-H1666, the relative viability is reported as 0.823.
NCI-H596 showed a relative viability of 1.
LK-2 showed a relative viability of 0.263.
NCI-H2087 gave a relative viability of 0.997.
SK-MES-1 gave a relative viability of 0.86.
In the case of H3255, the relative viability is reported as 0.841.
Cell Line COR-L23 has a relative viability of 0.749.
COR-L 105 was tested, and the relative viability was 0.742.
IA-LM showed a relative viability of 1.01.
Cell Line LOU-NH91 has a relative viability of 0.74.
Work on ChaGo-K-1 yielded a relative viability of 0.744.
In the case of NCI-H2170, the relative viability is reported as 1.23.
NCI-H2405 showed a relative viability of 0.893.
HOP-62 gave a relative viability of 0.609.
HCC-44 was tested, and the relative viability was 0.965.
With A549 the relative viability was 0.754.
LU99A showed a relative viability of 0.591.
Cell Line BEN has a relative viability of 0.913.
With HARA the relative viability was 0.839.
NCI-H1299 gave a relative viability of 1.04.
In the case of CAL-12T, the relative viability is reported as 0.853.
Cell Line NCI-H2228 has a relative viability of 0.308.
NCI-H1563 gave a relative viability of 0.82.
Work on NCI-H1944 yielded a relative viability of 1.12.
ABC-1 showed a relative viability of 1.03.
NCI-H358 showed a relative viability of 0.566.

Same assay, conditions: first compound 2.53 µM
For NCI-H1650, the relative viability was 0.662.
Cell Line EBC-1 has a relative viability of 0.216.
NCI-H1703 was tested, and the relative viability was 0.245.
For SW 1573, the relative viability was 0.548.
For NCI-H838, the relative viability was 0.48.
For LCLC-103H, the relative viability was 0.847.
With NCI-H2126 the relative viability was 0.787.
EMC-BAC-2 was tested, and the relative viability was 0.617.
Cell Line NCI-H2085 has a relative viability of 0.316.
Calu-6 showed a relative viability of 0.639.
For HCC-366, the relative viability was 0.453.
In the case of NCI-H1666, the relative viability is reported as 0.712.
For NCI-H596, the relative viability was 0.943.
With LK-2 the relative viability was 0.244.
NCI-H2087 was tested, and the relative viability was 0.827.
With SK-MES-1 the relative viability was 0.419.
Cell Line H3255 has a relative viability of 0.534.
Cell Line COR-L23 has a relative viability of 0.489.
COR-L 105 gave a relative viability of 0.581.
With LOU-NH91 the relative viability was 0.564.
ChaGo-K-1 gave a relative viability of 1.23.
NCI-H2170 showed a relative viability of 1.05.
In the case of NCI-H2405, the relative viability is reported as 0.587.
HOP-62 gave a relative viability of 0.782.
HCC-44 was tested, and the relative viability was 0.901.
A549 gave a relative viability of 0.405.
For LU99A, the relative viability was 0.466.
BEN showed a relative viability of 0.655.
In the case of NCI-H1299, the relative viability is reported as 0.942.
For CAL-12T, the relative viability was 0.455.
In the case of NCI-H2228, the relative viability is reported as 0.254.
With NCI-H1563 the relative viability was 0.663.
NCI-H1944 showed a relative viability of 0.836.
Cell Line ABC-1 has a relative viability of 0.899.
For NCI-H358, the relative viability was 0.417.

Same assay, conditions: first compound 8 µM
NCI-H727 showed a relative viability of 0.824.
NCI-H1650 showed a relative viability of 0.653.
EBC-1 showed a relative viability of 0.2.
For NCI-H1703, the relative viability was 0.343.
With NCI-H1993 the relative viability was 0.764.
With SW 1573 the relative viability was 0.466.
With NCI-H838 the relative viability was 0.583.
For LCLC-103H, the relative viability was 0.699.
In the case of NCI-H520, the relative viability is reported as 0.4.
In the case of NCI-H2126, the relative viability is reported as 0.777.
EMC-BAC-2 was tested, and the relative viability was 0.653.
NCI-H2085 was tested, and the relative viability was 0.358.
With Calu-6 the relative viability was 0.782.
HCC-366 was tested, and the relative viability was 0.472.
NCI-H1666 showed a relative viability of 0.989.
NCI-H596 was tested, and the relative viability was 0.871.
For LK-2, the relative viability was 0.239.
NCI-H2087 showed a relative viability of 0.984.
With SK-MES-1 the relative viability was 0.439.
For H3255, the relative viability was 0.714.
With COR-L23 the relative viability was 0.478.
Work on COR-L 105 yielded a relative viability of 0.828.
IA-LM gave a relative viability of 1.08.
In the case of LOU-NH91, the relative viability is reported as 0.563.
Work on ChaGo-K-1 yielded a relative viability of 1.12.
NCI-H2170 was tested, and the relative viability was 0.851.
Work on NCI-H2405 yielded a relative viability of 0.546.
Cell Line HOP-62 has a relative viability of 0.751.
HCC-44 showed a relative viability of 0.523.
A549 gave a relative viability of 0.431.
LU99A showed a relative viability of 0.471.
BEN was tested, and the relative viability was 0.827.
In the case of HARA, the relative viability is reported as 0.899.
Work on NCI-H1299 yielded a relative viability of 0.989.
CAL-12T gave a relative viability of 0.794.
NCI-H2228 gave a relative viability of 0.275.
Cell Line NCI-H1563 has a relative viability of 0.769.
Work on NCI-H1944 yielded a relative viability of 0.792.
For ABC-1, the relative viability was 0.801.
NCI-H358 gave a relative viability of 0.383.
